Test results reported in ChEMBL document CHEMBL6083251, “"Pseudosubstrate Envelope"/Free Energy Perturbation-Guided Design and Mechanistic Investigations of Benzothiazole HIV Capsid Modulators with High Ligand Efficiency” (J Med Chem, 2024).
Activity calls are given as the source filed them. No cut-off for these calls is given here.

Columns and labels:
[1] = target: Human immunodeficiency virus type 1 reverse transcriptase (Human immunodeficiency virus 1) (UniProt Q72547); experiment: Inhibition of HIV1 reverse transcriptase at 6 nM incubated for 1 hr by ELISA analysis
[2] = MRT(0 to infinity) in male Sprague-Dawley at 10 mg/kg, sc measured upto 24 hrs by LC-MS/MS analysis; assay type: ADME, organism-based; settings: rat, in vivo
[3] = Selectivity ratio of EC50 for wild type HIV-1 IIIB infected in human MT4 cells to EC50 for HIV-2 ROD infected in human MT-4 cells assessed as protection against virus-induced cytopathic effect incubated for 5 days by spectrophotometric based MTT assay; assay type: functional; settings: time 5 day
[4] = Acute toxicity in male Kunming mouse assessed as body weight gain at 1000 mg/kg, IG administered via gavage; assay type: organism-based; settings: in vivo, po
[5] = Subacute toxicity in male Kunming mouse assessed as pathological damage in lungs at 50 mg/kg, po administered every other day for 14 days by H and E staining based analysis; assay type: organism-based; settings: in vivo, 336 h, time 14 day
[6] = Subacute toxicity in male Kunming mouse assessed as animal death at 50 mg/kg, po administered every other day for 14 days; assay type: organism-based; settings: in vivo, 336 h, time 14 day
[7] = Subacute toxicity in male Kunming mouse assessed as convulsion at 50 mg/kg, po administered every other day for 14 days; assay type: organism-based; settings: in vivo, 336 h, time 14 day
MT4 = experiment: Cytotoxicity against human MT4 cells assessed as reduction in cell viability incubated for 5 days by spectrophotometric based MTT assay; assay type: functional; settings: MT4, 120 h, time 5 day
[8] = AUC(0 to infinity) in male Sprague-Dawley rat at 2 mg/kg, iv measured upto 24 hrs by LC-MS/MS analysis; assay type: ADME, organism-based; settings: in vivo
[9] = Subacute toxicity in male Kunming mouse assessed as body jerks at 50 mg/kg, po administered every other day for 14 days; assay type: organism-based; settings: in vivo, 336 h, time 14 day
[10] = Apparent volume of distribution in male Sprague-Dawley rat at 2 mg/kg, iv measured upto 24 hrs by LC-MS/MS analysis; assay type: ADME, organism-based; settings: in vivo, read-out: Vz
[11] = AUC(0 to infinity) in male Sprague-Dawley rat at 10 mg/kg, sc measured upto 24 hrs by LC-MS/MS analysis; assay type: ADME, organism-based; settings: in vivo
[12] = test system: Human immunodeficiency virus 1; experiment: Anti-HIV activity against wild type HIV-1 IIIB infected in human MT4 cells assessed as protection against virus-induced cytopathic effect incubated for 5 days by spectrophotometric based MTT assay; assay type: functional, organism-based; settings: Human immunodeficiency virus 1, IIIB, MT4, 120 h
[13] = target: Structural capsid protein (Human immunodeficiency virus 1) (UniProt Q76129); experiment: Binding affinity to HIV-1 hexameric capsid protein assessed as reduction in NUP153 binding to capsid protein by competition assay based SPR analysis; settings: filed as modulator
Structural capsid protein (Human immunodeficiency virus 1), sequence (Q76129 as listed by the source): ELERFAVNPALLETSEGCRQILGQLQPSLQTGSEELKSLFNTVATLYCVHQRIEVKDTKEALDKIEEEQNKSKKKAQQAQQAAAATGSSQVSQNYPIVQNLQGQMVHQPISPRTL

Q: For `CN(C(=O)[C@H](Cc1cc(F)cc(F)c1)NC(=O)Cc1c[nH]c2ccc(O)cc12)c1ccc2scnc2c1`, which inhibition [1] is on record?
A: inactive

Q: What about the MRT inf [2] of the same molecule?
A: 5.85 h

Q: And the “Ratio EC50” value [3]?
A: 0.03

Q: What about the Activity [4] of the same molecule?
A: Non-toxic

Q: What about the Activity [5] of the same molecule?
A: Non-toxic

Q: What about the Activity [6] of the same molecule?
A: Non-toxic

Q: And the Activity [7]?
A: Non-toxic

Q: What about the CC50 (MT4) of the same molecule?
A: 133 µM

Q: And the AUC(0-inf) [8]?
A: 7.77 ng·h/mL

Q: And the Activity [9]?
A: Non-toxic

Q: And the Vd [10]?
A: 72.9 L/kg

Q: What about the AUC(0-inf) [11] of the same molecule?
A: 33.6 ng·h/mL

Q: What about the EC50 [12] of the same molecule?
A: 2.69 nM

Q: What about the Activity [13] of the same molecule?
A: Active
